Data taken from patent US20230127559A1, “PEPTIDE ANALOGS AND USE OF SAME IN TREATING DISEASES, DISORDERS OR CONDITIONS ASSOCIATED WITH MUTANT P53 PROTEIN” (YEDA RESEARCH AND DEVELOPMENT CO. LTD., priority 2020, published 2023).
Like-named read-outs stand apart in the source and are kept apart here. Where a SMILES comes first, the peptide text is derived from it. Bridges are numbered along the chain shown (N, C = ends). [ ]: non-standard residue; d: D form. The star is where a group is joined. Docosanoyl = CCCCCCCCCCCCCCCCCCCCCC(=O)*; Oic = O=C(O)[C@@H]1C[C@@H]2CCCC[C@@H]2N1; Arachidoyl = CCCCCCCCCCCCCCCCCCCC(=O)*; Stearoyl = CCCCCCCCCCCCCCCCCC(=O)*; Palmitoyl = CCCCCCCCCCCCCCCC(=O)*; Tic = O=C(O)[C@@H]1Cc2ccccc2CN1; dTic = O=C(O)[C@H]1Cc2ccccc2CN1; Dab = NCC[C@H](N)C(=O)O

Tests used:
[1] = tested on: WI38 (non-transformed fibroblasts) cells, wtp53; assay type: cell-based; conditions: 48 h
Experimental: (§1) Cells were cultured in 96 wells plates with 2500-4000 cells/well. Serial dilutions of different peptides were added and the plates incubated for additional 48 h at 37° C. Then medium was removed and cell viability was determined by staining the cells with crystal violet (0.05%) in methanol/PBS (1:5, v/v), for 10 min, followed by 3 washes with PBS. 10% acetic acid was added to each well for 10 min. OD was determined at 595 nm.
(§2) The IC50 tables presented in FIGS. 17-20 are from several representative experiments performed on cell lines expressing several p53 hotspot mutations, as well as control non-transformed cells: […]

[2] = tested on: MIA PaCa-2 (pancreatic carcinoma) cells, p53R248W; assay type: cell-based; conditions: 48 h
Experimental: as §1, §2

[3] = tested on: RXF-393 (renal carcinoma) cells, p53R175H; assay type: cell-based, human; conditions: for increase in efficacy relative to pCAP-553: FIG. 17, effect of fatty acid length; for IC50: 48 h
Experimental: as §1
(§3) The IC50 tables presented in FIGS. 17-20 are from several representative experiments performed on cell lines expressing several p53 hotspot mutations, as well as control non-transformed cells:
Fatty acid position. Lead peptides were modified with N-terminal myristic acid to enable the penetration of peptides across the cell membrane. Although myristic acid is usually the default choice for cell permeability, additional options were explored of longer fatty acids and to examine the effect on peptide efficacy in terms of cancer cell killing. A standard crystal violet viability test was performed on human renal carcinoma RXF-393 cells, comparing the original pCAP-553, which has myristic acid (C14), with 4 derivative peptides modified with longer fatty acid chains: palmitic (C16), stearic (C18), […] (C20) and behenic (C22).

[4] = tested on: SW-480 (colon carcinoma) cells, p53R273H, P309S; assay type: cell-based; conditions: 48 h
Experimental: as §1, §2

[5] = tested on: PC9 (lung carcinoma) cells, p53R248Q; assay type: cell-based; conditions: 48 h
Experimental: as §1, §2

[6] = tested on: panel of cell lines expressing mutp53; assay type: cell-based; conditions: for IC50: 48 h
Experimental: as §1, §3
Proline residue position—Based on alanine scanning and molecular dynamics analyses, it is believed that the proline residue at the 6th position from the N-terminal is critical for the peptide's 3D structure and provides some rigidity required for peptide binding and activity. Therefore, it was hypothesized that a change in orientation or tetrahedral angle might increase the affinity of the peptide for p53. Six new peptides were synthesized replacing this proline residue with proline analogs (pCAPs 708-712, and pCAP-716, SEQ ID NOS: 6-10 and 14, respectively). This set of peptides was tested for activity on a panel of cell lines expressing mutp53, and compared it to pCAP-674 (SEQ ID NO: 27) and to the scrambled sequence peptides pCAP-721 (SEQ ID NO: 19) and pCAP-722 (SEQ ID NO: 20).

[7] = tested on: PANC1 (pancreatic carcinoma) cells, p53R273H; assay type: cell-based; conditions: 48 h
Experimental: as §1, §2

CCCCCCCCCCCCCC(=O)N[C@@H](CCCNC(=N)N)C(=O)N[C@@H](CCCNC(=N)N)C(=O)N[C@@H](Cc1c[nH]cn1)C(=O)N[C@@H](CO)C(=O)N[C@H](C(=O)N1CCC[C@H]1C(=O)N[C@@H](Cc1c[nH]cn1)C(=O)N1CCC[C@H]1C(=O)N[C@@H](CC(=O)O)C(=O)O)[C@@H](C)O [pCAP-250, myr-RRHSTPHPD]
IC50 [1]: > 40 µM
IC50 [2]: 1 µM

CCCCCCCCCCCCCCCCCC(=O)N[C@@H](CCCNC(=N)N)C(=O)N[C@@H](CCCNC(=N)N)C(=O)N[C@@H](Cc1c[nH]cn1)C(=O)N[C@@H](CO)C(=O)N[C@@H](C(=O)N1CCC[C@H]1C(=O)N[C@@H](CCN)C(=O)N1CCC[C@H]1C(=O)N[C@@H](CC(=O)O)C(N)=O)C(C)C [pCAP-674, str-RRHSvP(Dab)PD-NH2] (Stearoyl-RRHS[dV]P[Dab]PD-NH2)
increase in efficacy relative to pCAP-553 [3]: four-fold increase in efficacy
IC50 [4]: 0.6 µM
IC50 [5]: 0.21 µM
IC50 [1]: 36 µM

CCCCCCCCCCCCCCCCCCCC(=O)N[C@@H](CCCNC(=N)N)C(=O)N[C@@H](CCCNC(=N)N)C(=O)N[C@@H](Cc1c[nH]cn1)C(=O)N[C@@H](CO)C(=O)N[C@@H](C(=O)N1CCC[C@H]1C(=O)N[C@@H](CCN)C(=O)N1CCC[C@H]1C(=O)N[C@@H](CC(=O)O)C(N)=O)C(C)C [pCAP-706, arc-RRHSvP(Dab)PD-NH2] (Arachidoyl-RRHS[dV]P[Dab]PD-NH2)
IC50 [3]: 0.4 µM
IC50 [4]: 0.8 µM
IC50 [5]: 0.26 µM
IC50 [1]: 15 µM

CCCCCCCCCCCCCCCCCCCCCC(=O)N[C@@H](CCCNC(=N)N)C(=O)N[C@@H](CCCNC(=N)N)C(=O)N[C@@H](Cc1c[nH]cn1)C(=O)N[C@@H](CO)C(=O)N[C@@H](C(=O)N1CCC[C@H]1C(=O)N[C@@H](CCN)C(=O)N1CCC[C@H]1C(=O)N[C@@H](CC(=O)O)C(N)=O)C(C)C [pCAP-707, Beh-RRHSvP(Dab)PD-NH2] (Docosanoyl-RRHS[dV]P[Dab]PD-NH2)
IC50 [3]: 1.5 µM
IC50 [4]: 3 µM
IC50 [5]: 1.5 µM
IC50 [1]: 12 µM

CCCCCCCCCCCCCCCCCC(=O)N[C@@H](CCCNC(=N)N)C(=O)N[C@@H](CCCNC(=N)N)C(=O)N[C@@H](Cc1c[nH]cn1)C(=O)N[C@@H](CO)C(=O)N[C@@H](C(=O)N1CCC[C@@H]1C(=O)N[C@@H](CCN)C(=O)N1CCC[C@H]1C(=O)N[C@@H](CC(=O)O)C(N)=O)C(C)C [pCAP-708, str-RRHSvp(Dab)PD-NH2] (Stearoyl-RRHS[dV][dP][Dab]PD-NH2)
activity in viability assays compared with other peptides (in words) [6]: consistently modestly improved activity over pCAP-674
IC50 [6]: 0.12 to 1.3 µM
activity in viability assays compared with other peptides (in words) ([6]; listed as 708): highest activity
IC50 [1]: 32 µM
IC50 [2]: 0.5 µM

CCCCCCCCCCCCCCCCCC(=O)N[C@@H](CCCNC(=N)N)C(=O)N[C@@H](CCCNC(=N)N)C(=O)N[C@@H](Cc1c[nH]cn1)C(=O)N[C@@H](CO)C(=O)N[C@@H](C(=O)N1[C@H](C(=O)N[C@@H](CCN)C(=O)N2CCC[C@H]2C(=O)N[C@@H](CC(=O)O)C(N)=O)C[C@@H]2CCCC[C@@H]21)C(C)C [pCAP-711, str-RRHSv(Oic)(Dab)PD] (Stearoyl-RRHS[dV][Oic][Dab]PD-NH2; N-terminus and C-terminus assumed)
IC50 [3]: 2.6 µM
IC50 [4]: 3 µM
IC50 [5]: 1.6 µM
IC50 [1]: > 40 µM

CCCCCCCCCCCCCCCCCC(=O)N[C@@H](CCCNC(=N)N)C(=O)N[C@@H](CCCNC(=N)N)C(=O)N[C@@H](Cc1c[nH]cn1)C(=O)N[C@@H](CO)C(=O)N[C@@H](C(=O)N1Cc2ccccc2C[C@H]1C(=O)N[C@@H](CCN)C(=O)N1CCC[C@H]1C(=O)N[C@@H](CC(=O)O)C(N)=O)C(C)C [pCAP-712, str-RRHSv(Tic)(Dab)PD-NH2] (Stearoyl-RRHS[dV][Tic][Dab]PD-NH2)
activity in viability assays compared with other peptides (in words) [6]: highest activity
IC50 [3]: 0.6 µM
IC50 [4]: 1.5 µM
IC50 [5]: 1.2 µM
IC50 [2]: 1 µM

CCCCCCCCCCCCCCCCCC(=O)N[C@@H](CCCNC(=N)N)C(=O)N[C@@H](CCCNC(=N)N)C(=O)N[C@@H](Cc1c[nH]cn1)C(=O)N[C@@H](CO)C(=O)N[C@H]1CCCCNC(=O)[C@H](CC(=O)O)NC(=O)[C@@H]2CCCN2C(=O)[C@H](CCN)NC(=O)[C@@H]2CCCN2C1=O [pCAP-713, str-RRHSKP(Dab)PD-Cyc] (Stearoyl-RRHSKP[Dab]PD; lactam 5-C)
activity in viability assays compared with other peptides (in words) [6]: highest activity
IC50 [6]: 0.1 to 1 µM
increase in activity over pCAP-674 ([6]; FIGS. 18-20): 1.5-3 folds
increase in activity over the original pCAP-553 ([6]; FIGS. 18-20): 4-10 folds
IC50 [7]: 1.05 µM
IC50 [2]: 0.3 µM

CCCCCCCCCCCCCCCCCC(=O)N[C@@H](CCCNC(=N)N)C(=O)N[C@@H](CCCNC(=N)N)C(=O)N[C@H]1CCCCNC(=O)[C@H](CC(=O)O)NC(=O)[C@@H]2CCCN2C(=O)[C@H](CCN)NC(=O)[C@@H]2CCCN2C(=O)[C@@H](C(C)C)NC(=O)[C@H](CO)NC1=O [pCAP-714, str-RRKSvP(Dab)PD-Cyc] (Stearoyl-RRKS[dV]P[Dab]PD; lactam 3-C)
IC50 [3]: 0.57 µM
IC50 [4]: 1.09 µM
IC50 [5]: 0.8 µM
IC50 [1]: > 40 µM

CCCCCCCCCCCCCCCCCC(=O)N[C@@H](CCCNC(=N)N)C(=O)N[C@@H](CCCNC(=N)N)C(=O)N[C@H]1CCCCNC(=O)[C@H](CC(=O)O)NC(=O)[C@@H]2CCCN2C(=O)[C@H](CCN)NC(=O)[C@@H]2CCCN2C(=O)[C@@H](C(C)C)NC(=O)[C@H](CO)NC(=O)[C@H](Cc2c[nH]cn2)NC1=O [pCAP-715, str-RRKHSvP(Dab)PD-Cyc] (Stearoyl-RRKHS[dV]P[Dab]PD; lactam 3-C)
IC50 [3]: 0.48 µM
IC50 [4]: 0.54 µM
IC50 [5]: 0.25 µM
IC50 [1]: > 40 µM

CCCCCCCCCCCCCCCCCC(=O)N[C@@H](CCCNC(=N)N)C(=O)N[C@@H](CCCNC(=N)N)C(=O)N[C@@H](Cc1c[nH]cn1)C(=O)N[C@@H](CO)C(=O)N[C@@H](C(=O)N1CCC[C@H]1C(=O)N[C@@H](CCN)C(=O)N1CCC[C@H]1C(=O)N[C@@H](CC(=O)O)C(N)=O)C(C)C [pCAP-718, str-RRHSvP(Dab)PD-NH2 ion ex] (Stearoyl-RRHS[dV]P[Dab]PD-NH2)
IC50 [3]: 0.37 µM
IC50 [5]: 0.72 µM
IC50 [1]: > 40 µM
IC50 [7]: 2.21 µM

CCCCCCCCCCCCCCCCCC(=O)N[C@@H](CCCNC(=N)N)C(=O)N[C@@H](CCCNC(=N)N)C(=O)N[C@@H](Cc1c[nH]cn1)C(=O)N[C@@H](CO)C(=O)N[C@H](CCCCN)C(=O)N1Cc2ccccc2C[C@@H]1C(=O)N[C@@H](CCN)C(=O)N1CCC[C@H]1C(=O)N[C@@H](CC(=O)O)C(N)=O [pCAP-719, str-RRHSk(tic)(Dab)PD-NH2] (Stearoyl-RRHS[dK][dTic][Dab]PD-NH2)
IC50 [3]: 0.46 µM
IC50 [5]: 0.57 µM
IC50 [1]: 29 µM
IC50 [7]: 2.18 µM

CCCCCCCCCCCCCCCCCC(=O)N[C@@H](CCCNC(=N)N)C(=O)N[C@@H](CCCNC(=N)N)C(=O)N[C@@H](Cc1c[nH]cn1)C(=O)N[C@@H](CO)C(=O)N[C@@H](C(=O)N1CCC[C@@H]1C(=O)N[C@@H](CCN)C(=O)N1CCC[C@H]1C(=O)N[C@H](CC(=O)O)C(=O)NCC(=O)N[C@@H](CCCNC(=N)N)C(=O)O)C(C)C [pCAP-721, str-RRHSvp(Dab)PdGR] (Stearoyl-RRHS[dV][dP][Dab]P[dD]GR-OH; C-terminus assumed)
activity in viability assays compared with other peptides (in words) [6]: comparable activity to pCAP-717
IC50 [3]: 0.3 µM
IC50 [4]: 1.2 µM
IC50 [5]: 0.8 µM
IC50 [2]: 0.3 µM

CCCCCCCCCCCCCCCCCC(=O)N[C@@H](CCCNC(=N)N)C(=O)N[C@@H](CC(=O)O)C(=O)N1CCC[C@H]1C(=O)N[C@@H](Cc1c[nH]cn1)C(=O)N[C@@H](C(=O)N[C@@H](CO)C(=O)N1CCC[C@H]1C(=O)N[C@@H](CCCNC(=N)N)C(=O)N[C@@H](CCN)C(N)=O)C(C)C [pCAP-723, str-RDPHvSPR(Dab)-NH2, reference compound] (Stearoyl-RDPH[dV]SPR[Dab]-NH2)
IC50 [3]: > 40 µM
IC50 [5]: > 40 µM
IC50 [1]: > 40 µM
IC50 [7]: > 40 µM

pam-RRHSvP(Dab)PD-NH2 (Palmitoyl-RRHS[dV]P[Dab]PD-NH2) [pCAP-673, pam—Palmitic]
increase in efficacy relative to pCAP-553 [3]: two-fold increase in efficacy
